Test results from publication PMC5075699.
Several values for one entry are separate records, joined by “and”; a condition that tells them apart may be missing. Identical values can stand only once.

How the values were obtained:
[1] = ISRIB plasma levels in satellite mice (pharmacokinetic data); conditions: Morris water maze #2 satellite mice; 2.5 mpk i.p. (DMSO/PEG); 2.5 hours post-administration; individual mouse; 2.5 mg/kg
hAPP-J20 (J20) mice = test: Morris water maze #2, hAPP-J20 mice; conditions: for %Target Quadrant / Crossing Frequency / Latency to Target / Training Latency: ISRIB 2.5mpk in DMSO/PEG
[2] = system: prion disease mouse models; conditions: in vivo, ip, 0.25 mg/kg; cited from earlier work
nontransgenic mice = test: Contextual fear conditioning; conditions: ISRIB 2.5mpk, individual mice
[3] = parameters: method as in Di Prisco et al., 2014; conditions: acute treatment; ref Di Prisco et al., 2014; cited from earlier work
rodents = system: rodents; parameters: method as in Sidrauski et al., 2013; conditions: delivered immediately after a stimulus or behavioral task; ref Sidrauski et al., 2013; cited from earlier work
nontransgenic (NTG) mice = test: Morris water maze #2, nontransgenic (NTG) mice; conditions: for %Target Quadrant / Crossing Frequency / Latency to Target / Training Latency: ISRIB 2.5mpk in DMSO/PEG
[4] = Fig 4E, NTG mice, individual mice
[5] = Fig 4F, NTG mice, individual animals

SMILES: O=C(COc1ccc(Cl)cc1)NC1CCC(NC(=O)COc2ccc(Cl)cc2)CC1 (stereo not shown) [ISRIB]
- Plasma concentration [1]: 657 ng/mL and 348 ng/mL and 286 ng/mL
- learning during the training trials (hAPP-J20 (J20) mice; 0.25 or 2.5 mpk): did not observe an improvement in learning
- spatial memory treatment effects (hAPP-J20 (J20) mice; 72 hour probe trial, 0.25 or 2.5 mpk): did not observe significantly positive treatment effects
- %Target Quadrant (hAPP-J20 (J20) mice; Fig 4E, individual mice): 31.3647% and 28.3617% and 19.6864% and 31.5871% and 22.6894% and 33.1443% and 19.1302% and 8.787% and 27.8056% and 30.5861% and 20.9098% and 21.7996%
- Crossing Frequency (hAPP-J20 (J20) mice; Fig 4E, individual mice): 3 and 2 and 0 and 1
- Latency to Target (hAPP-J20 (J20) mice; Fig 4E, individual mice): 3.136 and 38.1715 and 60 and 8.542 and 51.318 and 28.5619 and 11.0777
- Crossing Frequency (hAPP-J20 (J20) mice; Fig 4F, individual animals): 3 and 1 and 0 and 4
- Latency to Target (hAPP-J20 (J20) mice; Fig 4F, individual animals): 7.941 and 17.6843 and 60 and 4.8048 and 4.538 and 12.7461 and 25.1585 and 9.076
- %Target Quadrant (hAPP-J20 (J20) mice; Fig 4F, individual mice): 32.9218% and 31.4759% and 23.2455% and 26.026% and 17.9068% and 37.2595% and 13.013% and 23.1343% and 9.676% and 36.9258% and 20.7986% and 27.6944%
- Training Latency (hAPP-J20 (J20) mice; Trial 8, individual mice (Fig 4A-D)): 120.187 (5×) and 47.5142 and 79.2125 and 54.9216 and 27.9613 and 39.306 and 87.0204 and 3.937
- Training Latency (hAPP-J20 (J20) mice; Trial 9, individual mice (Fig 4A-D)): 119.052 and 25.2252 and 42.5759 and 34.301 and 6.673 and 11.3447 and 10.8775 and 120.187 (2×) and 96.2296 and 50.5839 and 5.272
- Training Latency (hAPP-J20 (J20) mice; Trial 10, individual mice (Fig 4A-D)): 11.3447 and 82.5492 and 23.8906 and 120.187 (3×) and 29.1625 and 43.9106 and 12.3457 and 39.2392 and 38.9056 and 8.008
- Training Latency (hAPP-J20 (J20) mice; Trial 11, individual mice (Fig 4A-D)): 26.293 and 117.251 and 19.4861 and 120.187 (5×) and 28.2282 and 11.4781 and 13.4134 and 31.1645
- extension of survival [2]: approximately 1 week
- Post-Shock (nontransgenic mice; Fig 3A): 6.61 and 2.22 and 0 and 2.28 and 2.39 and 18.72 and 31.39 and 15.72 and 15.83 and 8.22 and 17.11 and 7.56 and 7 and 11.33 and 13.11 and 8.28 and 20.33 and 19.33 and 29.44 and 32.33 and 27.56
- Pre-Shock (nontransgenic mice; Fig 3A): 1.67 and 0 and 0.97 and 2.33 and 0.86 and 33.64 and 1.83 and 1.44 and 1.08
- 1st 4 min context (nontransgenic mice; Fig 3B): 11.1 and 4.75 and 30.01 and 15.49 and 4.44 and 18.51 and 26.85 and 38.13 and 45.92 and 9.61 and 2.13 and 12.76 and 6.75 and 15.99 and 18.96 and 31.54 and 27.17 and 21.38 and 27.25 and 14.79 and 16.25 and 41.57 and 18.94 and 33.54 and 25.69 and 47.14 and 19.89 and 27.42 and 56.35 and 28.89
- 2nd 4 min context (nontransgenic mice; Fig 3B): 31.29 and 5.25 and 33.13 and 30.94 and 0 and 19.46 and 29.43 and 31.87 and 22.86 and 6.96 and 10.43 and 9.1 and 5.42 and 17.46 and 22.21 and 24.07 and 43.26 and 31.68 and 31.22 and 19.13 and 25.14 and 47.79 and 41.86 and 24.76 and 22.15 and 38.53 and 12.88 and 14.39 and 38.49 and 10.29
- 8 min context (nontransgenic mice; Fig 3B): 21.54 and 5 and 31.79 and 23.22 and 2.22 and 18.99 and 28.14 and 35.24 and 34.55 and 8.28 and 6.28 and 10.93 and 6.08 and 16.72 and 20.58 and 27.86 and 35.22 and 26.54 and 29.26 and 16.96 and 20.81 and 44.68 and 30.75 and 29.15 and 24.19 and 43.22 and 16.38 and 20.9 and 47.8 and 19.59
- effect on object-place learning [3]: interfered with proper object-place learning
- effect on spatial and fear memory (rodents): enhance spatial and fear memory
- MWM training latency NTG Trial*ISRIB (linear mixed effects regression model) (nontransgenic (NTG) mice; 0.25 mpk in 1% DMSO/saline, vs vehicle): −0.1 sec/day
- %Target Quadrant (nontransgenic (NTG) mice; [4]): 53.4979% and 33.8116% and 21.5771% and 31.9208% and 40.8186% and 33.2555% and 14.7926% and 38.7054% and 50.3837% and 29.8076% and 34.8126% and 37.4819%
- Crossing Frequency (nontransgenic (NTG) mice; [4]): 7 and 3 and 0 and 4 and 2 and 1 and 6
- Latency to Target (nontransgenic (NTG) mice; [4]): 12.9463 and 11.6116 and 60 and 7.741 and 3.4034 and 4.6046 and 17.8846 and 5.806 and 58.7921 and 9.409 and 18.6186
- %Target Quadrant (nontransgenic (NTG) mice; Fig 4F, NTG mice, individual mice): 51.4959% and 27.4719% and 32.1433% and 20.02% and 23.9128% and 54.4989% and 37.8156% and 28.8066% and 47.6032% and 24.024% and 39.8176%
- Crossing Frequency (nontransgenic (NTG) mice; [5]): 7 and 3 and 5 and 2 and 1
- Latency to Target (nontransgenic (NTG) mice; [5]): 10.7441 and 4.6046 and 20.3537 and 7.474 and 3.27 and 20.1535 and 5.6056 and 21.1545 and 23.6904 and 21.4214 and 20.287 and 19.2859
- Training Latency (nontransgenic (NTG) mice; NTG mice, Trial 8, individual mice (Fig 4A-D)): 2.936 and 11.4781 and 15.9493 and 10.5439 and 6.139 and 7.074 and 4.8048 and 33.3667 and 6.74 and 48.7821 and 3.871 and 75.7424
- Training Latency (nontransgenic (NTG) mice; NTG mice, Trial 9, individual mice (Fig 4A-D)): 45.6457 and 6.273 and 8.742 and 30.297 and 12.6793 and 5.739 and 57.0571 and 4.8048 and 11.8118 and 7.341 and 70.1368 and 5.138
- Training Latency (nontransgenic (NTG) mice; NTG mice, Trial 10, individual mice (Fig 4A-D)): 3.737 and 4.004 and 28.295 and 62.9963 and 3.67 and 21.6216 and 5.939 and 22.6226 and 8.542 and 19.4861 and 60 and 4.271
- Training Latency (nontransgenic (NTG) mice; NTG mice, Trial 11, individual mice (Fig 4A-D)): 31.7651 and 42.1088 and 14.281 and 24.7581 and 7.074 and 6.54 and 24.024 and 52.7861 and 11.6116 and 20.7541 and 39.5062 and 3.6036
- learning during the training trials (nontransgenic (NTG) mice; NTG mice, 0.25 or 2.5 mpk): did not observe an improvement in learning
- spatial memory treatment effects (nontransgenic (NTG) mice; NTG mice, 72 hour probe trial, 0.25 or 2.5 mpk): did not observe significantly positive treatment effects
